In patent US9751885B2, “Cyclopropanamine compound and use thereof” (Takeda Pharmaceutical Company Limited, priority 2012, dated 2017):
pIC50: −log10 of the molar value. Where a name gives a salt, the structure may show the parent alone.

Columns and labels:
MAO-B enzyme = MAO-B enzyme (Homo sapiens (Human), UniProt P27338); assay: Measurement of MAO-B inhibitory activity (MAO-Glo Assay); settings: read-out: MAO-B IC50 value;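 further: luminescence read-out, compound preincubated 10 min with enzyme then reacted 60 min at room temperature, inhibition relative to enzyme reaction without compound, blank lacking enzyme and compound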
Description: The MAO-B inhibitory activity evaluation described below followed the protocol of MAO-Glo (registered trademark) Assay of Promega KK.
A test compound dissolved in 4% DMSO was added by 12.5 μL to 25 μL reaction solution (100 mM HEPES (pH 7.5), 5% glycerol, 10% DMSO) containing 400 ng of MAO-B enzyme (Sigma-Aldrich Co. LLC.), and the mixture was reacted at room temperature for 10 min. […] After reaction at room temperature for 60 min, Luciferine detection reagent (Promega KK) (50 μL) was added to terminate the reaction. After reaction at room temperature for 20 min with stirring, the luminescence was measured by Envision (PerkinElmer). The MAO-B inhibitory rate (%) of the test compound was calculated by the following formula. inhibitory rate(%)=(1−(test compound count−blank)÷(control−blank))×100
The count of the MAO-B enzyme reaction mixture under compound non-addition conditions is indicated as control, and the count under compound non-addition and MAO-B enzyme non-addition conditions is indicated as blank.

human LSD1(172-833) = human LSD1(172-833) (Homo sapiens (Human), UniProt O60341); assay: Measurement of LSD1 inhibitory activity (time-resolved fluorescence, biotin-histone H3 mono methylated K4 peptide); assay type: biochemical
Description: When the turbidity reached 500 Klett units, the culture temperature was changed to 16° C., IPTG (Isopropyl β-D-1-thiogalactopyranoside) having a final concentration of 0.5 mM was added to induce expression, and the cells were cultured further for 14 hr. The culture medium was centrifuged at 6,000 g for 15 min, and Escherichia coil pellets were recovered.
Using Branson ultrasonic disintegrator, the suspension was disrupted by ultrasonication for 3 min, and centrifuged at 33,000 g for 60 min, and the supernatant was recovered. […] It was concentrated to 10 mL with AmiconUltra (NWCO 30K) (Millipore Japan), and purified with HiLoad 26/60 Superdex 200 pg column (GE Healthcare) equilibrated with Buffer A to give hLSD1 purified product (8.4 mg). The protein concentration of hLSD1 was measured by BCA Protein Assay Kit (Thermo Fisher Scientific K.K.) using bovine serum albumin as the standard.
(5) Measurement of LSD1 Inhibitory Activity
After reaction at room temperature for 5 min, 1 mM 2-PCPA solution was added 5 μL to terminate the reaction. A detection solution ([…] potassium fluoride, 0.1% BSA) containing europium-labeled anti-histone H3 antibody (Wako Pure Chemical Industries, Ltd.) and Streptavidin-XL665 (Cisbio) was further added by 5 μL, and the mixture was left standing for 60 min.

MAO-A enzyme = MAO-A enzyme (Homo sapiens (Human), UniProt P21397); assay: Measurement of MAO-A inhibitory activity (MAO-Glo Assay); assay type: biochemical
Sequence of MAO-A enzyme (P21397 whole entry): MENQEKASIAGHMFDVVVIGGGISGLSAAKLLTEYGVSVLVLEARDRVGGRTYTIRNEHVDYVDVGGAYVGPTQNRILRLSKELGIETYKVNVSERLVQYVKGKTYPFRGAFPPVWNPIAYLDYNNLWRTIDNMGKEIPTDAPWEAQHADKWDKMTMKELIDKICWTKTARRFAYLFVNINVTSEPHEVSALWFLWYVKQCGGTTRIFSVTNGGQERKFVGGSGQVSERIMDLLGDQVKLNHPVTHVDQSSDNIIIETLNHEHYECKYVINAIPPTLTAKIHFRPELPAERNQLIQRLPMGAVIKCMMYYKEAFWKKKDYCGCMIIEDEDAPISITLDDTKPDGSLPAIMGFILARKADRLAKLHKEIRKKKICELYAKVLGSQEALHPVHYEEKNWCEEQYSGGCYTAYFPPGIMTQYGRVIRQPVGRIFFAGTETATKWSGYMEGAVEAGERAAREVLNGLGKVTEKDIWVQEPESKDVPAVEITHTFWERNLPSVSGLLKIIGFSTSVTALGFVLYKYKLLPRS
Description: The MAO-A inhibitory activity evaluation described below followed the protocol of MAO-Glo (registered trademark) Assay of Promega KK.
A test compound dissolved in 4% DMSO was added by 12.5 μL to 25 μL reaction solution (100 mM HEPES (pH 7.5), 5% glycerol) containing 400 ng of MAO-A enzyme (Sigma-Aldrich Co. LLC.), and the mixture was reacted at room temperature for 10 min. […] After reaction at room temperature for 60 min, Luciferine detection reagent (Promega KK) (50 μL) was added to terminate the reaction. After reaction at room temperature for min with stirring, the luminescence was measured by Envision (PerkinElmer). The MAO-A inhibitory rate (%) of the test compound was calculated by the following formula. inhibitory rate(%)=(1−(test compound count−blank)÷(control−blank))×100
The count of the MAO-A enzyme reaction mixture under compound non-addition conditions is indicated as control, and the count under compound non-addition and MAO-A enzyme non-addition conditions is indicated as blank.

Sequence of MAO-B enzyme (P27338 whole entry): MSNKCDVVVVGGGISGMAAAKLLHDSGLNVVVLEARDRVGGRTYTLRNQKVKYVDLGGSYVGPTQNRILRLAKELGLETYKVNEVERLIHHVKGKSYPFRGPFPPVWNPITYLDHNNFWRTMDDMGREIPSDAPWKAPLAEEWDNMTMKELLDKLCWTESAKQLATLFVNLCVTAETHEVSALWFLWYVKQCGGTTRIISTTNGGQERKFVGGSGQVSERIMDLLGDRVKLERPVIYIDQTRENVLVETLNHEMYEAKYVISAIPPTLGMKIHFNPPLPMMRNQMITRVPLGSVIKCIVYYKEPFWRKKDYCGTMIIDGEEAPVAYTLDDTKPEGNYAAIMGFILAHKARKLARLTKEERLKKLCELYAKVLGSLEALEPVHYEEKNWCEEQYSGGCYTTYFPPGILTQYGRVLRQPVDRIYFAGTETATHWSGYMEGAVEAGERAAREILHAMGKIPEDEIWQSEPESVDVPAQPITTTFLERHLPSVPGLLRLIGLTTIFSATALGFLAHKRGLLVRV

SMILES: N[C@@H]1C[C@H]1c1ccc(C(=O)Nc2ccccc2)cc1 (relative stereo) [Example 1, 4-(trans-2-aminocyclopropyl)-N-phenylbenzamide hydrochloride]
- pIC50 (MAO-B enzyme): 5.49
- pIC50 (human LSD1(172-833)): > 7.00
- pIC50 (MAO-A enzyme): 7.00

SMILES: N[C@@H]1C[C@H]1c1ccc(C(=O)NCc2ccccc2)cc1 (relative stereo) [Example 2, 4-(trans-2-aminocyclopropyl)-N-benzylbenzamide hydrochloride]
- pIC50 (MAO-B enzyme): < 5.00
- pIC50 (human LSD1(172-833)): > 7.00
- pIC50 (MAO-A enzyme): 7.00

SMILES: CN(C(=O)c1ccc([C@@H]2C[C@H]2N)cc1)c1ccccc1 (relative stereo) [Example 3, 4-(trans-2-aminocyclopropyl)-N-methyl-N-phenylbenzamide hydrochloride]
- pIC50 (MAO-B enzyme): < 5.00
- pIC50 (human LSD1(172-833)): > 7.00
- pIC50 (MAO-A enzyme): 6.60

SMILES: N[C@@H]1C[C@H]1c1ccc(C(=O)Nc2cccc(C(F)(F)F)c2)cc1 (relative stereo) [Example 4, 4-(trans-2-aminocyclopropyl)-N-(3-(trifluoromethyl)phenyl)benzamide hydrochloride]
- pIC50 (MAO-B enzyme): 6.27
- pIC50 (human LSD1(172-833)): > 7.00
- pIC50 (MAO-A enzyme): 6.72

SMILES: N[C@@H]1C[C@H]1c1ccc(C(=O)NC2CCCCC2)cc1 (relative stereo) [Example 6, 4-(trans-2-aminocyclopropyl)-N-cyclohexylbenzamide hydrochloride]
- pIC50 (MAO-B enzyme): 5.38
- pIC50 (human LSD1(172-833)): > 7.00
- pIC50 (MAO-A enzyme): 6.49

SMILES: N[C@@H]1C[C@H]1c1ccc(C(=O)N2CCCCC2)cc1 (relative stereo) [Example 7, (4-(trans-2-aminocyclopropyl)phenyl)(piperidin-1-yl)methanone hydrochloride]
- pIC50 (MAO-B enzyme): < 5.00
- pIC50 (human LSD1(172-833)): > 7.00
- pIC50 (MAO-A enzyme): 6.10

SMILES: O=C(Nc1ccccc1)c1ccc([C@@H]2C[C@H]2NCC2CC2)cc1 (relative stereo) [Example 8, 4-(trans-2-((cyclopropylmethyl)amino)cyclopropyl)-N-phenylbenzamide hydrochloride]
- pIC50 (MAO-B enzyme): 5.34
- pIC50 (human LSD1(172-833)): > 7.00
- pIC50 (MAO-A enzyme): 5.08

SMILES: CN(Cc1ccccc1)C(=O)c1ccc([C@@H]2C[C@H]2N)cc1 (relative stereo) [Example 9, 4-(trans-2-aminocyclopropyl)-N-benzyl-N-methylbenzamide hydrochloride]
- pIC50 (MAO-B enzyme): < 5.00
- pIC50 (human LSD1(172-833)): > 7.00
- pIC50 (MAO-A enzyme): 6.92

SMILES: CN(Cc1ccccc1)C(=O)c1ccc([C@@H]2C[C@H]2NCC2CC2)cc1 (relative stereo) [Example 10, N-benzyl-4-(trans-2-((cyclopropylmethyl)amino)cyclopropyl)-N-methylbenzamide hydrochloride]
- pIC50 (MAO-B enzyme): < 5.00
- pIC50 (human LSD1(172-833)): > 7.00
- pIC50 (MAO-A enzyme): 5.15

SMILES: O=C(Nc1ccccc1)c1cccc([C@@H]2C[C@H]2NCC2CC2)c1 (relative stereo) [Example 13, 3-(trans-2-((cyclopropylmethyl)amino)cyclopropyl)-N-phenylbenzamide hydrochloride]
- pIC50 (MAO-B enzyme): < 5.00
- pIC50 (human LSD1(172-833)): > 7.00
- pIC50 (MAO-A enzyme): < 5.00

SMILES: O=C(NCc1ccccc1)c1cccc([C@@H]2C[C@H]2NCC2CC2)c1 (relative stereo) [Example 14, N-benzyl-3-(trans-2-((cyclopropylmethyl)amino)cyclopropyl)benzamide hydrochloride]
- pIC50 (MAO-B enzyme): < 5.00
- pIC50 (human LSD1(172-833)): > 7.00
- pIC50 (MAO-A enzyme): 5.09

SMILES: Cc1cnc(CNC(=O)c2ccc([C@@H]3C[C@H]3NCC3CC3)cc2)cn1 (relative stereo) [Example 15, 4-(trans-2-((cyclopropylmethyl)amino)cyclopropyl)-N-((5-methylpyrazin-2-yl)methyl)benzamide bis(trifluoroacetate)]
- pIC50 (MAO-B enzyme): < 5.00
- pIC50 (human LSD1(172-833)): > 7.00
- pIC50 (MAO-A enzyme): < 5.00

SMILES: O=C(NCc1ccccn1)c1ccc([C@@H]2C[C@H]2NCC2CC2)cc1 (relative stereo) [Example 16, 4-(trans-2-((cyclopropylmethyl)amino)cyclopropyl)-N-(pyridin-2-ylmethyl)benzamide bis(trifluoroacetate)]
- pIC50 (MAO-B enzyme): < 5.00
- pIC50 (human LSD1(172-833)): > 7.00
- pIC50 (MAO-A enzyme): < 5.00
